Common to all, as to assay: relative viability (nuclei count vs DMSO), 5 days (fraction); higher = more cells survive
Compound in one assay: C1CC1C(=O)NC2=NNC3=C2C=CC(=C3)C4=CC(=CC=C4)C(=O)NC5CC5 [XMD13-2]
In outline: (§1)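 A plate was accepted only when its control CV was below 25% and the cells had doubled at least once. Viability is defined from nuclear counts as treated wells divided by vehicle wells, with the median taken across plates. That median covers lung cancer cell lines grown in 1536-well plates, dosed by pinning at five √10-spaced library-drug concentrations, and counted in MetaXpress from 4× Hoechst images after 5 days.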

Compound in another assay: Cc1ccc(C(=O)Nc2cccc(C(F)(F)F)c2)cc1Nc1cncc(C(N)=O)c1 [ALW-II-49-7]
In outline:
as §1

Compound in the next assay: Cc1nc(Nc2ncc(C(=O)Nc3c(C)cccc3Cl)s2)cc(N2CCN(CCO)CC2)n1 [Dasatinib]
In outline:
as §1

Consider UMC-11, for which the relative viability with XMD13-2 (0.05 µM) was 1.12; with XMD13-2 (0.1581 µM) it was 0.945; with XMD13-2 (0.5 µM), 0.993; in the assay with XMD13-2 (1.581 µM), 0.887; with XMD13-2 (5 µM), 1.01; with ALW-II-49-7 (0.08 µM), 1.01. Moreover, the relative viability with ALW-II-49-7 (0.253 µM) came out at 1.02; in the assay with ALW-II-49-7 (0.8 µM), 0.975; in the assay with ALW-II-49-7 (2.53 µM), 1.02; with ALW-II-49-7 (8 µM), 1.01; in the assay with Dasatinib (0.005 µM), 0.916; with Dasatinib (0.01581 µM) it was 0.801. The relative viability with Dasatinib (0.05 µM) was found to be 0.63; in the assay with Dasatinib (0.075 µM, anchor plate) it was 0.479; with Dasatinib (0.1581 µM) it was 0.415; with Dasatinib (0.5 µM), 0.37.
